Data as given in US20100092443A1, “NOVEL COMBINATIONS OF NITROGENATED HETEROCYCLIC ANTIBACTERIAL COMPOUNDS WITH OTHER ANTIBACTERIAL COMPOUNDS AND THE USE OF SAME AS DRUGS” (priority 2008, published 2010).
Values after ≈ are worked out from the molar mass of the structure shown. Like-named read-outs stand apart in the source and are kept apart here.

How the values were obtained:
E. coli = assay: microbe, parasite or virus in culture; type: cell-based; settings: Escherichia coli
Experimental: (§1) In vitro activity, method of dilutions in liquid medium:
(§2) A series of test 96-well microtiter plates are prepared in which the same quantity of sterile nutritive medium is distributed. […] After 24 h of incubation in a 37° C. oven, growth inhibition is evaluated by transillumination, which makes it possible to determine the minimum inhibitory concentrations (MICS) expressed in μg/ml.

E. cloacae = assay: MIC, dilutions in liquid medium, alone and combined with NXL105; type: cell-based; settings: Enterobacter cloacae, AmpC, read-out: MIC
Experimental: as §1, §2

K. pneumoniae = assay: as above; type: cell-based; settings: Klebsiella pneumoniae, read-out: MIC
Experimental: as §1, §2

K. oxytoca = assay: as above; type: cell-based; settings: Klebsiella oxytoca, read-out: MIC
C. freundii = assay: as above; type: cell-based; settings: Citrobacter freundii, read-out: MIC
E. aerogenes = assay: as above; type: cell-based; settings: Klebsiella aerogenes, 24 h; E. aerogenes EAR2; Case-R + FEP-R; read-out: MIC
P. aeruginosa (391 HT2) [1] = assay: MICs determined on microplates; type: cell-based, Pseudomonas aeruginosa; settings: Pseudomonas aeruginosa; sensitive strain P. aeruginosa 391 HT2
Experimental: (§3) The minimum inhibitory concentrations (MICs) of the products to be tested (products alone and combinations) are determined in advance. • For each concentration of product to be tested as well as the control stock, an Erlenmeyer flask containing 18.5 ml Muller-Hinton medium (Ca^++) is prepared. • From an overnight culture in broth or a bacterial suspension of OD (optical density)=1, a 1/100 dilution is prepared. • The sample is cultured with agitation for 2 h at 37° C. • OD is measured: if >0.5, the sample is diluted to 1/10. • Each Erlenmeyer flask is inoculated with 1 ml of the agitated culture or its dilution. The initial inoculum should be 1×10^6 CFU/ml. • The various antibiotic solutions are added at a volume of 0.5 ml and 0.5 ml of medium in the control Erlenmeyer flask. • With a volume of 0.1 ml, the control Erlenmeyer flask is numbered=TO. • The flask is incubated at 37° C. with agitation. • At each sampling point (2, 4, 6, 24, 48 hours), a volume of 0.1 ml is sampled from each Erlenmeyer flask and numbered. • Plates for all the numbered samples are incubated (24 h-48 h) at 37° C.
Bactericidal activity was evaluated on a sensitive strain of P. aeruginosa (391 HT2)

P. aeruginosa (391 HT2) [2] = assay: MICs in a volume of 10 ml, bactericidal conditions (exponential bacterial growth); type: cell-based, Pseudomonas aeruginosa; settings: Pseudomonas aeruginosa
Experimental: as §3
For the bactericidal tests, MICs are determined in a volume of 10 ml-bactericidal conditions (exponential bacterial growth): […]

C[C@H]1[C@H](NC(=O)/C(=N\OC(C)(C)C(=O)O)c2csc(N)n2)C(=O)N1S(=O)(=O)O [Aztreonam]
MIC (E. coli; 24 h, E. coli 2138, KPC-2 + TEM-1): 32 µg/mL
MIC (E. coli; 24 h, E. coli (no alias), CTX-M-15 + TEM-1 + OXA-1): 4 µg/mL
MIC (E. coli; 24 h, E. coli IND, VEB-1 + CMY-2): > 32 µg/mL
MIC (E. coli; 24 h, E. coli TN06, CTX-M-2 + TEM-1): 8 µg/mL
MIC (E. coli; 24 h, E. coli TN13, CTX-M-14 + CMY-2 + TEM-1): 16 µg/mL
MIC (E. coli; 24 h, E. coli Tunisie clone E4, CTX-M-16 + TEM-1): 32 µg/mL
MIC (E. coli; E. coli (no alias), Cephalosporinase, read-out: MIC): 16 µg/mL (≈ 36.7 µM)
MIC (E. coli; E. coli (no alias), SHV-4): 16 µg/mL (≈ 36.7 µM)
MIC (E. coli; E. coli (no alias), TEM-3): 8 µg/mL (≈ 18.4 µM)
MIC (E. cloacae; E. cloacae (no alias)): 16 µg/mL
MIC (E. cloacae; E. cloacae): 16 µg/mL
MIC (K. pneumoniae; 24 h, K. pneumoniae 60, SHV-2 + TEM-2 + PER): 16 µg/mL
MIC (K. pneumoniae; 24 h, K. pneumoniae 157, SHV-5 + TEM-26): 16 µg/mL
MIC (K. pneumoniae; 24 h, K. pneumoniae 236, SHV-5 + TEM-10): 16 µg/mL
MIC (K. pneumoniae; 24 h, K. pneumoniae 253, SHV-2 + TEM-12 + CTX-M-2): 16 µg/mL
MIC (K. pneumoniae; 24 h, K. pneumoniae 427, SHV-1 + TEM-1B + CTX-M-3): 4 µg/mL
MIC (K. pneumoniae; 24 h, K. pneumoniae 441, SHV-1 + TEM-2 + PER): 16 µg/mL
MIC (K. pneumoniae; 24 h, K. pneumoniae 444, SHV-5 + TEM-2 + PER): 8 µg/mL
MIC (K. pneumoniae; 24 h, K. pneumoniae 1734, FOX-3 + TEM-1): 8 µg/mL
MIC (K. pneumoniae; 24 h, K. pneumoniae 9701, CMY-4 + TEM-1): 16 µg/mL
MIC (K. pneumoniae; 24 h, K. pneumoniae Patient 1BHR, VIM-4 + CTX-M-15 = CMY-4 + TEM-1): 16 µg/mL
MIC (K. pneumoniae; 24 h, K. pneumoniae SLK54, ACC-1 + TEM-1): 2 µg/mL
MIC (K. pneumoniae; 24 h, K. pneumoniae TN58467, DHA-1 + SHV-2a + TEM-1): 16 µg/mL
MIC (K. pneumoniae; ATCC700603, K. pneumoniae ATCC 700603, SHV-18): 8 µg/mL
MIC (K. pneumoniae; K. pneumoniae 26, SHV-5): 16 µg/mL
MIC (K. pneumoniae; K. pneumoniae KP04, CTX-M-14): 16 µg/mL
MIC (K. pneumoniae; K. pneumoniae VAKP, KPC-2): 16 µg/mL
MIC (K. oxytoca; K. oxytoca 1431, TEM-129): > 32 µg/mL
MIC (K. oxytoca; K. oxytoca 16944, OXY-2, TEM-1): 32 µg/mL
MIC (C. freundii; 24 h, C. freundii (no alias), AmpC + TEM-1): 16 µg/mL
MIC (C. freundii; C. freundii (no alias, table row r121), AmpC): 8 µg/mL
MIC (C. freundii; C. freundii (no alias, table row r122), AmpC): 32 µg/mL
MIC (C. freundii; C. freundii (no alias, table row r123), AmpC): 16 µg/mL
MIC (C. freundii; C. freundii (no alias, table row r125), AmpC): 4 µg/mL
MIC (E. aerogenes): 16 µg/mL

O=C(O)c1cn(C2CC2)c2cc(N3CCNCC3)c(F)cc2c1=O [Ciprofloxacine]
MIC (P. aeruginosa (391 HT2) [1]): 1 µg/mL

NC[C@H]1O[C@H](O[C@H]2[C@H](O)[C@@H](O[C@H]3O[C@H](CO)[C@@H](O)[C@H](N)[C@H]3O)[C@H](N)C[C@@H]2N)[C@H](N)C[C@@H]1O [Tobramycin]
MIC (P. aeruginosa (391 HT2) [1]): 1 µg/mL
MIC (P. aeruginosa (391 HT2) [2]): 1 µg/mL
